Experimental data reported in PMC8899516, “Structure-Activity Relationship Studies of 4-((4-(2-fluorophenyl)piperazin-1-yl)methyl)-6-imino-N-(naphthalen-2-yl)-1,3,5-triazin-2-amine (FPMINT) Analogues as Inhibitors of Human Equilibrative Nucleoside Transporters” (Frontiers in Pharmacology, 2022).

Columns and labels:
[1] = biological target: T1, ENT1 (Homo sapiens, UniProt Q99808); assay: [3H]uridine uptake in PK15NTD/ENT1 cells; format: cell-based; conditions: [3H]uridine 1 μM, 1 min, PK15NTD/ENT1 cells; read-out: IC50 against ENT1
T1 construct: expressed in transfected cells
T1 sequence (Q99808 1-456): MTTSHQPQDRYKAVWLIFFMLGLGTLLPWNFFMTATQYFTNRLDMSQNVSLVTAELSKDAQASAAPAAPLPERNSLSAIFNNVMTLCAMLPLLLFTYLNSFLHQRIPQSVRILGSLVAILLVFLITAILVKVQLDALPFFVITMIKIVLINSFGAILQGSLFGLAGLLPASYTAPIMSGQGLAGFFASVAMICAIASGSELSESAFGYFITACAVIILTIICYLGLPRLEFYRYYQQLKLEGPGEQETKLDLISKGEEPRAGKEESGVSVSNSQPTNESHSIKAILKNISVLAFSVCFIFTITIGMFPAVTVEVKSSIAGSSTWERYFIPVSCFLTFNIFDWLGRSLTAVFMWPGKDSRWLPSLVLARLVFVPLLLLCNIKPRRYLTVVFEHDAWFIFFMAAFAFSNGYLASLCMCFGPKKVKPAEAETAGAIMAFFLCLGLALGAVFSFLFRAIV
Experimental: Nucleoside transporter-deficient porcine kidney fibroblast cells (PK15NTD) stably transfected with cloned human ENT1 or ENT2 ([Ward et al., 2000]) were used as the in vitro models. The cells were cultured in Dulbecco’s Modified Eagle’s Medium (DMEM) supplemented with 10% (v/v) foetal bovine serum, 0.5 mg/ml geneticin, 100 units/ml penicillin, 100 μg/ml streptomycin and 0.25 μg/ml of amphotericin B at 37°C in 5% CO2/95% air.
Confluent monolayers of PK15NTD/ENT1 and PK15NTD/ENT2 cells in 24-well plates were washed thrice with HEPES-buffered Ringer’s solution containing (mM): 135 NaCl, 10 glucose, 5 KCl, 5 HEPES, 3.33 NaH2PO4, 1.0 CaCl2, 1.0 MgCl2, 0.83 Na2HPO4; pH 7.4. The cells were incubated with different concentrations of FPMINT analogues (from 10 nM to 100 μM) containing [^3H]uridine (2 μCi/ml, 1 μM) for 1 min. Passive uridine uptake was determined by incubating the cells in HEPES-buffered Ringer’s solution containing [^3H]uridine in the presence of 0.5 mM NBMPR. The cells were rapidly washed five times with ice-cold phosphate-buffered saline (PBS). After air-drying, the cells were solubilised by overnight incubation in 500 μl of 5% Triton-X100. Next, 300 μl of the cell lysates were mixed with 2 ml of scintillation liquid. The radioactivity of each sample was quantified by a scintillation counter. The protein content in each well was determined spectrophotometrically using a commercial bicinchoninic acid assay (Pierce Biochemicals, Rockford, IL). Uptake values were expressed as picomoles of [^3H]uridine per milligram of cellular protein per minute.
All data were analysed by GraphPad Prism software (San Diego, CA, United States). Data are expressed as mean ± standard error (SE) of three experiments performed in triplicate. The IC50 values were determined from the dose-response curves fitted with a logistic function. For the kinetic study of [^3H]uridine uptake, apparent K m and V max values were determined from the Michaelis-Menten equation, and K i was determined from the X-intercept of linear regression. Analysis of variance and Student’s t-test were performed for multiple and paired variables, respectively. p values of <0.05 were considered to be statistically significant.

[2] = system: ENT2; assay: Western blotting of ENT2 protein expression; format: cell-based, human; conditions: 50 µM, 24 h or 48 h
Experimental: PK15NTD/ENT1 and PK15NTD/ENT2 cells were grown to confluence in 10-cm culture dishes and treated with 50 µM of compound 3c or an equivalent volume of a vehicle (0.5% DMSO) for 24 h or 48 h. The cells were washed thrice with ice-cold PBS. Total protein was extracted by cell lysis in a lysis buffer (5 mM sodium monophosphate, pH 8) with a protease inhibitor cocktail (Sigma, St Louis, MO, United States; 1:1,000 [v/v]). The protein content was measured by bicinchoninic acid assay. Protein samples were separated by 12.5% sodium dodecyl sulfate–polyacrylamide gel electrophoresis (SDS-PAGE) and blotted onto polyvinylidene difluoride (PVDF) membranes. […] The membranes were then again washed, and the bound secondary antibodies were detected using an enhanced chemiluminescence kit (Bio-Rad, Hercules, CA, United States). […] To semi-quantify the ENT1 and ENT2 protein levels, the same membranes were washed three times with a stripping buffer for 10 min at room temperature, and the protein expression level of β-actin was measured using monoclonal mouse anti-β-actin primary antibodies (1:3,000 [v/v] dilution in a blocking solution). […]
FIGURE 5 Effects of compound 3c on cytotoxicity and protein expressions of ENT1 and ENT2. […] Total ENT1 and ENT2 from whole-cell lysates were also detected for a comparison. β-actin served as an internal reference. […]

Question: With `Cc1cccc(Nc2nc(N)nc(CN3CCN(c4ccc(F)cc4)CC3)n2)c1` [Compound 3c] as the compound, how does the IC50 [1] read?
Answer: Its IC50 is 2380 nM.

Question: What about the “protein expression level of ENT2” value [2] of the same compound?
Answer: Its value is “unaltered”.
